Species: Rattus norvegicus
Experiment: Open TG-GATES - Regimen: Single
Format: toxicity, organism-based, Sprague-Dawley
Design: regimen Single, gender Male, age 6 weeks
Conditions: in vivo, ip, 0.001 mg/kg, route intraperitoneal injection, dose 1 ug/Kg, dose level Low; for APTT / Bas / Eos / Fbg / Hb / Ht / Lym / MCH / MCHC / MCV / Mono / Neu / PT / Plat / RBC / Ret / WBC: tissue Blood; for KIDNEY_L / KIDNEY_R / KIDNEY_TOTAL: tissue Kidney; for LIVER: tissue Liver; for A/G / ALP / ALT / AST / BUN / CRE / Ca / Cl / DBIL / GLC / IP / K / LDH / Na / PL / RALB / TBIL / TC / TG / TP / gamma-GTP: tissue Plasma

## H-KGDRLS-OH [TNF-ALPHA]
3 h
  TERMINAL_BW: 199 g
  APTT: 17.8 s
  Bas: 0.4%
  Eos: 0.4%
  Fbg: 267.2 mg/dL
  Hb: 12.9 g/dL
  Ht: 39.8%
  Lym: 65.8%
  MCH: 21.4 pg
  MCHC: 32.4%
  MCV: 65.8 fL
  Mono: 4.2%
  Neu: 28%
  PT: 15.4 s
  Plat: 115.7 x10_4/uL
  RBC: 605.4 x10_4/ul
  Ret: 9.7%
  WBC: 95.8 x10_2/uL
  KIDNEY_L: 0.9 g
  KIDNEY_R: 0.9 g
  KIDNEY_TOTAL: 1.8 g
  LIVER: 9.3 g
  A/G: 0.9
  ALP: 1460 IU/L
  ALT: 47.8 IU/L
  AST: 77.2 IU/L
  BUN: 10.4 mg/dL
  CRE: 0.2 mg/dL
  Ca: 10.8 mg/dL
  Cl: 105.6 meq/L
  DBIL: 0.01 mg/dL
  GLC: 177.2 mg/dL
  IP: 9.8 mg/dL
  K: 4.1 meq/L
  LDH: 69.6 IU/L
  Na: 142 meq/L
  PL: 154.4 mg/dL
  RALB: 2.4 g/dL
  TBIL: 0.056 mg/dL
  TC: 83 mg/dL
  TG: 71.6 mg/dL
  TP: 5.2 g/dL
  gamma-GTP: 1.2 IU/L
6 h
  TERMINAL_BW: 195 g
  APTT: 16.4 s
  Bas: 0%
  Eos: 0.2%
  Fbg: 310.6 mg/dL
  Hb: 12.9 g/dL
  Ht: 39.3%
  Lym: 53.8%
  MCH: 21.1 pg
  MCHC: 32.8%
  MCV: 64.3 fL
  Mono: 2%
  Neu: 43.2%
  PT: 15.3 s
  Plat: 115.3 x10_4/uL
  RBC: 612.4 x10_4/ul
  Ret: 8.4%
  WBC: 82.5 x10_2/uL
  KIDNEY_L: 0.8 g
  KIDNEY_R: 0.9 g
  KIDNEY_TOTAL: 1.7 g
  LIVER: 8.3 g
  A/G: 0.9
  ALP: 1365.6 IU/L
  ALT: 36.4 IU/L
  AST: 69 IU/L
  BUN: 7.8 mg/dL
  CRE: 0.2 mg/dL
  Ca: 10.8 mg/dL
  Cl: 105.2 meq/L
  DBIL: 0.006 mg/dL
  GLC: 171.4 mg/dL
  IP: 10 mg/dL
  K: 3.7 meq/L
  LDH: 69.2 IU/L
  Na: 143.4 meq/L
  PL: 139.8 mg/dL
  RALB: 2.5 g/dL
  TBIL: 0.06 mg/dL
  TC: 80.4 mg/dL
  TG: 31.6 mg/dL
  TP: 5.3 g/dL
  gamma-GTP: 1.2 IU/L
9 h
  TERMINAL_BW: 195.3 g
  APTT: 16.7 s
  Bas: 0%
  Eos: 0.2%
  Fbg: 364.8 mg/dL
  Hb: 13 g/dL
  Ht: 40.1%
  Lym: 68.2%
  MCH: 21.4 pg
  MCHC: 32.4%
  MCV: 66.1 fL
  Mono: 2.2%
  Neu: 28.6%
  PT: 15.3 s
  Plat: 97.2 x10_4/uL
  RBC: 607 x10_4/ul
  Ret: 8.6%
  WBC: 61.4 x10_2/uL
  KIDNEY_L: 0.9 g
  KIDNEY_R: 0.9 g
  KIDNEY_TOTAL: 1.8 g
  LIVER: 8.4 g
  A/G: 0.9
  ALP: 1554.2 IU/L
  ALT: 38.8 IU/L
  AST: 71.4 IU/L
  BUN: 8.2 mg/dL
  CRE: 0.2 mg/dL
  Ca: 10.6 mg/dL
  Cl: 105.2 meq/L
  DBIL: 0.008 mg/dL
  GLC: 169.6 mg/dL
  IP: 10.5 mg/dL
  K: 3.7 meq/L
  LDH: 47.8 IU/L
  Na: 142.4 meq/L
  PL: 154.2 mg/dL
  RALB: 2.5 g/dL
  TBIL: 0.066 mg/dL
  TC: 84 mg/dL
  TG: 39.6 mg/dL
  TP: 5.4 g/dL
  gamma-GTP: 1 IU/L
24 h
  TERMINAL_BW: 211.6 g
  APTT: 17.8 s
  Bas: 0%
  Eos: 1%
  Fbg: 353.2 mg/dL
  Hb: 13.1 g/dL
  Ht: 40.4%
  Lym: 79.4%
  MCH: 21.5 pg
  MCHC: 32.4%
  MCV: 66.4 fL
  Mono: 3%
  Neu: 15.8%
  PT: 15.4 s
  Plat: 108.1 x10_4/uL
  RBC: 608.8 x10_4/ul
  Ret: 8.2%
  WBC: 71.1 x10_2/uL
  KIDNEY_L: 0.9 g
  KIDNEY_R: 0.9 g
  KIDNEY_TOTAL: 1.8 g
  LIVER: 10.2 g
  A/G: 0.8
  ALP: 1816.8 IU/L
  ALT: 43.2 IU/L
  AST: 70.8 IU/L
  BUN: 15.4 mg/dL
  CRE: 0.2 mg/dL
  Ca: 11.3 mg/dL
  Cl: 106 meq/L
  DBIL: 0.008 mg/dL
  GLC: 185.4 mg/dL
  IP: 8.7 mg/dL
  K: 4.5 meq/L
  LDH: 86.4 IU/L
  Na: 142.2 meq/L
  PL: 158.6 mg/dL
  RALB: 2.7 g/dL
  TBIL: 0.042 mg/dL
  TC: 81.8 mg/dL
  TG: 80.2 mg/dL
  TP: 5.8 g/dL
  gamma-GTP: 1 IU/L
